From US20220047569A1, “METHOD AND COMPOUND FOR USE, IN TREATING AND/OR PREVENTING NETOSIS” (Jubilant EpiPad LLC, priority 2020, published 2022)

What was measured:
[1] = test system: Histone H3 Citrullination in Neutrophils; assay: Citrullination ELISA (Citrullinated Histone H3) in calcium ionophore stimulated neutrophils; assay type: cell-based; details: Neutrophil; human neutrophils, 25 μM calcium ionophore, CitH3 ELISA
Outline: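 Freshly isolated human donor neutrophils in RPMI with 2% BSA and 1 mM CaCl2 were pre-incubated 30 min with compound (10, 1, 0.1 μM), then stimulated 30 min with 25 μM calcium ionophore. After S7 nuclease digestion, lysates were assayed by citrullinated histone H3 ELISA (450 nm); IC50 from sigmoidal fits.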

[2] = test system: NETosis in human neutrophils; assay: NETosis assay (SYTOX green, flow cytometry); assay type: cell-based; details: Neutrophil, two independent NETosis assays, read-out: Average percent inhibition
Procedure: Neutrophils were isolated according to the EasySep Direct Human Neutrophil Isolation Kit. In short, 50 mL of blood sample was drawn in a vacutainer containing K2EDTA from a healthy donor. To the whole blood, the isolation cocktail of 50 μL/mL was added. Then, in the next step 50 μL/mL of RapidSpheres™ was added to the sample. The sample was mixed evenly with the pipette and incubated for 10 minutes at room temperature. After incubation, PBS containing 1 mM EDTA was added at the ratio of 1:1 to the blood. Then the sample tube was incubated for 10 minutes. The enriched cell suspension was transferred into a new tube and RapidSpheres™ were added at 50 μL/mL to this suspension, mixed and incubated for 10 minutes at room temperature. At this step, the enriched cell suspension was carefully collected as a clear fraction into a fresh tube. Then, previous tube was replaced with the fresh tube containing enriched cell suspension. After the final separation, the clear solution of enriched cell suspension was carefully transferred to fresh tube which was ready to use for the experiment. These cells were then subjected to wash twice with plain RPMI 1640 media without Fetal Bovine Serum (FBS) and centrifuged at 1500 rpm for 5 minutes at room temperature. Cell counts were performed on each sample by Invitrogen cell counter. After the cell count, cell density was adjusted according to the experiment and re-suspended in complete RPMI media containing RPMI1640, 2% BSA and 1 mM CaCl2.
Freshly isolated neutrophils from human donor were seeded at a density of 0.5×10^6 cells in 400 μL cell suspension/well in a 24-well plate and cells were pre-incubated with the compound for 30 minutes by adding 50 μL of the 10× concentration to achieve the final 1× concentration of compound (10 μM, 1 μM and 0.1 μM). 1% DMSO was added in control wells. […]
Average percent inhibition for compound 143 was calculated as 2% at 0.1 μM, 30% at 1 μM and 85% at 10 μM in two independent NETosis assays using human neutrophils.

[3] = test system: silica induced lung fibrosis; assay: Silica induced pro-fibrotic lung model; assay type: in vivo, C57BL/6 female mice; details: 50 mg/kg PO, BID, day 7 to 11, therapeutic; silica mice
Procedure: The instillation of silica into the murine lung results in the development of fibrotic nodules that resemble simple silicotic nodular fibrosis, which develop in humans following some occupational exposures to dust and particulate aerosols. Silica can be delivered to rodents via aerosolization, intratracheal administration or oropharyngeal aspiration. C57BL/6 female mice at an age of 6-8 weeks were instilled with silica particles (2.5 mg/mouse) by non-surgical intratracheal (IT) method. The day of silica instillation was defined as day 0. Test compound was administered twice daily and standard of care was dosed once daily from day 7 to 11 for therapeutic intervention. Animals were monitored and evaluated for their clinical signs and body weight loss. Animals were euthanized on day 11 and the lungs were weighed and biomarkers were analyzed in lung.

## N[C@@H]1CCCN(C(=O)c2cc3c4c(c2)nc(-c2cc5cccc(Cl)c5n2CC2CC2)n4CCO3)C1 [Compound 143, (R)-(3-aminopiperidin-1-yl)(2-(7-chloro-1-(cyclopropylmethyl)-1H-indol-2-yl)-3,4-dihydro-5-oxa-1,2a-diazaacenaphthylen-7-yl)methanone]
[1]
  IC50: 100 to 1000 nM
[2]; at 0.1 μM
  inhibition at 0.1 µM: 2%
[2]; at 1 μM
  inhibition at 1 µM: 30%
[2]; at 10 μM
  inhibition at 10 µM: 85%
[3]
  Fibronectin level: significant decrease
  Lung weight: significant decrease
